# Values of other authors, collected in patent US20140147549A1, “CARBOHYDRATE BAR” (NESTEC S.A., priority 2008, published 2014).
# Settings: previous research data, single carbohydrate source alone
compound,measurement,value
O=C(CO)[C@@H](O)[C@H](O)[C@H](O)CO [fructose],"peak exogenous carbohydrate oxidation, single carbohydrate source",~0.4 g/min
